Source: patent US6833456B2, “Indolyl-urea derivatives of thienopyridines useful as antiangiogenic agents, and methods for their use” (Agouron Pharmaceuticals, Inc., priority 2002, dated 2004)
Several values for one entry are separate records, joined by “and”; a condition that tells them apart may be missing. Equal entries are not always repeated.

Assays:
KDR (VEGFR2) = target: T1, KDR (VEGFR2) (Homo sapiens, UniProt P35968); experiment: KDR (VEGFR2) phosphorylation in PAE-KDR cells assay; format: cell-based; conditions: PAE cells overexpressing human KDR, VEGF stimulated; read-out: PAE KDR autophos IC50
T1 construct: expressed in transfected cells; host or cells: porcine aorta endothelial (PAE) cells
T1 sequence (P35968 20-1356): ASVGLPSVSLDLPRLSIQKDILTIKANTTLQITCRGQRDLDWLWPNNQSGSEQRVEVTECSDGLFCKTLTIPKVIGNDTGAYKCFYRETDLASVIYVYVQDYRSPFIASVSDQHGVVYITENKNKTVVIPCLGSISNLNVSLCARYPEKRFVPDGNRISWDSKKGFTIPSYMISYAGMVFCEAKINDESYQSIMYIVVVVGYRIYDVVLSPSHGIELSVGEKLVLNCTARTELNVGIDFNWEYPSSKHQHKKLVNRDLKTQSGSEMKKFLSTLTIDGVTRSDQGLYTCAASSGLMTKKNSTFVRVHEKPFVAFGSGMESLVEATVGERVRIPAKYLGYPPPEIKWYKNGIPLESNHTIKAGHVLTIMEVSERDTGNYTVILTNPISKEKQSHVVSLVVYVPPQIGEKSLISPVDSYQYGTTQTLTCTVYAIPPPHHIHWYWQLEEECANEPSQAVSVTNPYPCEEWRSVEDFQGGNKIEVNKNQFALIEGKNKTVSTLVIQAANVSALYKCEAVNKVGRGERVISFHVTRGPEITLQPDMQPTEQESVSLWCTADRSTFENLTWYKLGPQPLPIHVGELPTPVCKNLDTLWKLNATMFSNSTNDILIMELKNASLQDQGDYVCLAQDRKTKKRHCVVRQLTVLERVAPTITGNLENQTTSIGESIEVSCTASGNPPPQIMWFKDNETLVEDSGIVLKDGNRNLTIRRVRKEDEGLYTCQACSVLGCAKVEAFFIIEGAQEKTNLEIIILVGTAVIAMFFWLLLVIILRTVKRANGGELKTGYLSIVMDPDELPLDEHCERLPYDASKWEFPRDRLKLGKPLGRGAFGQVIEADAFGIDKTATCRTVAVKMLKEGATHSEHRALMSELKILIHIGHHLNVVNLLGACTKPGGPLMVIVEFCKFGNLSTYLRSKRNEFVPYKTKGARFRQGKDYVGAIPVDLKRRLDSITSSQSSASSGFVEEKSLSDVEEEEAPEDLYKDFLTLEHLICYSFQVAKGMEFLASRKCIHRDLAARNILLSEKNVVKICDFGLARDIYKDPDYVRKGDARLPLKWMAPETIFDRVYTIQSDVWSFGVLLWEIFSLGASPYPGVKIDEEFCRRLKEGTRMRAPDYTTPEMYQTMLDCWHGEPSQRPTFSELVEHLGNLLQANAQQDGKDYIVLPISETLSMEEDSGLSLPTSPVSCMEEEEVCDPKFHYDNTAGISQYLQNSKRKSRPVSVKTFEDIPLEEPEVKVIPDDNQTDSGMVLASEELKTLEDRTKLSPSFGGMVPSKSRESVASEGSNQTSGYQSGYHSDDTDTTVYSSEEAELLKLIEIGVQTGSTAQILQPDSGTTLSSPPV
Method in brief: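 PAE cells overexpressing human KDR, serum-starved 16 h (0.1% FBS), treated with compound 1 h at 37° C (0.5% DMSO), then stimulated 8 min with 500 ng/ml VEGF plus 2 mM Na3VO4. Lysate KDR phosphotyrosine measured by capture ELISA (anti-pY HRP, 450 nm); IC50 by four-parameter fit.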

PDGFRβ = target: T2, PDGFRβ (Homo sapiens, UniProt P09619); experiment: PAE-PDGFRβ phosphorylation in PAE-PDGFRB cells assay; format: cell-based; conditions: PAE cells overexpressing human PDGFRβ, PDGF-BB stimulated; read-out: PAE PDGFR autophos IC50
T2 construct: expressed in transfected cells; host or cells: porcine aorta endothelial (PAE) cells
T2 sequence (P09619 33-1106): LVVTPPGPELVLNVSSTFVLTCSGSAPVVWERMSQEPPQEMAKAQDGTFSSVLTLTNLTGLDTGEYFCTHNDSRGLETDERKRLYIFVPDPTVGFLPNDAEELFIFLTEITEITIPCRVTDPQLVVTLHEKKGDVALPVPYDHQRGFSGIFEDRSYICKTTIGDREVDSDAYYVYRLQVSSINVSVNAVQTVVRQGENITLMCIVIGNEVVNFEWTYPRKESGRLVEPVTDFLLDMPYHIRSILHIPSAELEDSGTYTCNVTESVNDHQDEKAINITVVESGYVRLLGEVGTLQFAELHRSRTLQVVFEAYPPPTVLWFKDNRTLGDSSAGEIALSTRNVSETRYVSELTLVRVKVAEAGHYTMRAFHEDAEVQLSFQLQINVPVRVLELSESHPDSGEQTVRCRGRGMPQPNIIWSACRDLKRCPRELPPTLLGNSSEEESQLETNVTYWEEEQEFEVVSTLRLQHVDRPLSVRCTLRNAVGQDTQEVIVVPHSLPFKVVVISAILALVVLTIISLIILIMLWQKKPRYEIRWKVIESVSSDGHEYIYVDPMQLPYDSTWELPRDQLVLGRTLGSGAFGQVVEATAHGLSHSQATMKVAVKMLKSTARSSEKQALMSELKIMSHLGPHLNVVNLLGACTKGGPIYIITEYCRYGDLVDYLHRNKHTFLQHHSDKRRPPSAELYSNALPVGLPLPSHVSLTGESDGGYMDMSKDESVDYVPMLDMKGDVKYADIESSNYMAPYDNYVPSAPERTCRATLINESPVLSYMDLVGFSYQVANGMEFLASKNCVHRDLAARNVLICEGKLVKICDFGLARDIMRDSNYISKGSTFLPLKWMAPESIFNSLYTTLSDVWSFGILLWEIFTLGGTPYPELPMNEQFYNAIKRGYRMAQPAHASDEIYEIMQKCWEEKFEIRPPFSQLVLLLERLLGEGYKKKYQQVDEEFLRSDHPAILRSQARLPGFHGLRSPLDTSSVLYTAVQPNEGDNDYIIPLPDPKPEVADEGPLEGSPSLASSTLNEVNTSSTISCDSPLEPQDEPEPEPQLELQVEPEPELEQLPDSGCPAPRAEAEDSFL
Method in brief: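 PAE cells overexpressing human PDGFRβ, serum-starved 16 h (0.1% FBS), compound 1 h at 37° C (0.5% DMSO), then 1 μg/mL PDGF-BB with 2 mM Na3VO4 for 8 min. Receptor captured by anti-PDGFRβ, phosphotyrosine detected by HRP-PY20/TMB at 450 nm; IC50 by four-parameter fit.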

Mouse PK assay = format: in vivo, B6 female mice; conditions: for AUC / Cmax: female, B6, mouse, plasma; for AUC / Cmax / Mouse Cmin, po: po; for Cmax: read-out: Mouse Cmax, po ng-h/mL
Method in brief: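 Plasma levels were measured by HPLC with UV detection after acetonitrile precipitation, using extracted standards, in blood taken up to 4 h (0.5, 1, 2, 4 h) post-dose. Dosing: 50 mg/kg orally or intraperitoneally to two groups of four female B6 mice, vehicle PEG 400:acidified H2O 30:70 suspension.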

HUVEC = experiment: bFGF HUVEC proliferation; format: cell-based, human; conditions: bFGF stimulated HUVEC

Row | Compound | IC50 (KDR (VEGFR2)) | IC50 (PDGFRβ) | AUC (Mouse PK assay; 50 mg/kg) [ng·h/mL] | Cmax (Mouse PK assay; 50 mg/kg, p.o., 50 mg/kg) [ng/mL] | Mouse Cmin, po (Mouse PK assay) [ng/mL] | IC50 (HUVEC; Homo sapiens, HUVEC) [nM] | IC50 (HUVEC) | Mouse Cmax, po ng/mL (Mouse PK assay; p.o., 50 mg/kg) [ng/mL]
1 | CNC(=O)n1c(C)cc2cc(Nc3ccnc4cc(C(=O)N5CCC[C@@H]5CO)sc34)ccc21 [Example 1a, 5-[2-(2R-Hydroxymethyl-pyrrolidine-1-carbonyl)-thieno[3,2-b]pyridin-7-ylamino]-2-methyl-indole-1-carboxylic acid methylamide] | 1.06 nM | 239 nM | 1020 | 526 | 3 | 59 |  | 
2 | CNC(=O)n1c(C)cc2cc(Nc3ccnc4cc(C(=O)N5CCC[C@@H]5COC)sc34)ccc21 [Example 1b, 5-[2-(2R-Methoxymethyl-pyrrolidine-1-carbonyl)-thieno[3,2-b]pyridin-7-ylamino]-2-methyl-indole-1-carboxylic acid methylamide] | 0.28 nM and 0.25 nM | 73 nM and 86 nM | 78 | 24 | 5 | 80 |  | 
3 | COC[C@H]1CCCN1C(=O)c1cc2nccc(Nc3ccc4c(c3)cc(C)n4C(=O)NC3CC3)c2s1 [Example 1d, 5-[2-(2R-Methoxymethyl-pyrrolidine-1-carbonyl)-thieno[3,2-b]pyridin-7-ylamino]-2-methyl-indole-1-carboxylic acid cyclopropylamide] | 0.45 nM and 0.51 nM | 42 nM and 45 nM and 74 nM | 5070 | 2820 | 32 | 24 | 23.4 nM | 
4 | Cc1cc2cc(Nc3ccnc4cc(C(=O)N5CC[C@H](O)C5)sc34)ccc2n1C(=O)NC1CC1 [Example 1k, 5-[2-(3S-Hydroxy-pyrrolidine-1-carbonyl)-thieno[3,2-b]pyridin-7-ylamino]-2-methyl-indole-1-carboxylic acid cyclopropylamide] | 2.1 nM and 5.4 nM and 4.74 nM | > 1000 nM | 18 | 8 | 0 | 26.6 |  | 
5 | CNC(=O)n1c(C)cc2cc(Nc3ccnc4cc(C(=O)N5CC[C@@H](OC)C5)sc34)ccc21 [Example 1l, 5-[2-(3R-Methoxy-pyrrolidine-1-carbonyl)-thieno[3,2-b]pyridin-7-ylamino]-2-methyl-indole-1-carboxylic acid methylamide] |  | 49 nM and 45 nM and 95 nM | 719 | 504 | 5 | 6.1 |  | 
6 | CNC(=O)n1c(C)cc2cc(Nc3ccnc4cc(C(=O)N5CC[C@@H](O)C5)sc34)ccc21 [Example 1n, 5-[2-(3R-Hydroxy-pyrrolidine-1-carbonyl)-thieno[3,2-b]pyridin-7-ylamino]-2-methyl-indole-1-carboxylic acid methylamide] | 4.01 nM and 2.77 nM | > 1000 nM and 2600 nM | 12 | 8 | 0 | 30.2 | 19.4 nM | 
7 | C#CCNC(=O)n1c(C)cc2cc(Nc3ccnc4cc(C(=O)N5CC[C@@H](O)C5)sc34)ccc21 [Example 1o, 5-[2-(3R-Hydroxy-pyrrolidine-1-carbonyl)-thieno[3,2-b]pyridin-7-ylamino]-2-methyl-indole-1-carboxylic acid prop-2-ynylamide] | 1.6 nM | 533 nM | 219 | 100 | 6 | 49.6 | 52 nM | 
8 | COC[C@@H]1CCCN1C(=O)c1cc2nccc(Nc3ccc4c(c3)cc(C)n4C(=O)NC3CC3)c2s1 [Example 2c, 5-(2-[(S)-2-(methoxymethyl)pyrrolidine-1-carbonyl]thieno[3,2-b]pyridin-7-ylamino)-2-methylindole-1-carboxylic acid cyclopropylamide] | 0.67 nM and 0.42 nM (2×) | 84 nM and 105 nM and 87 nM | 6700 | 3700 | 35 | 41 | 27 nM and 33 nM and 24 nM and 40 nM | 
9 | Cc1cc2cc(Nc3ccnc4cc(-c5nccn5C)sc34)ccc2n1C(=O)NC1CC1 [Example 2d, 5-(2-[1-methyl-1H-imidazol-2-yl]thieno[3,2-b]pyridin-7-ylamino)-2-methylindole-1-carboxylic acid cyclopropylamide] |  | 11 nM and 25 nM | 457 | 411 | 0 | 34 |  | 
10 | Cc1cc2cc(Nc3ccnc4cc(C(=O)N5CCC[C@H]5CO)sc34)ccc2n1C(=O)NC1CC1 [Example 2e, 5-(2-[(S)-2-(hydroxymethyl)pyrrolidine-1-carbonyl]thieno[3,2-b]pyridin-7-ylamino)-2-methylindole-1-carboxylic acid cyclopropylamide] | 1.32 nM and 1.38 nM | > 1000 nM | 43 | 28 | 0 | 27.8 | 31.6 nM | 
11 | CCOC(=O)c1csc(-c2cc3nccc(Nc4ccc5c(c4)cc(C)n5C(=O)NC)c3s2)n1 [Example 3c, 2-[7-(2-Methyl-1-methylcarbamoyl-1H-indol-5-ylamino)-thieno[3,2-b]pyridin-2-yl]-thiazole-4-carboxylic acid ethyl ester] | 0.1 nM and 0.041 nM | 631 nM |  |  | 0 | 184 | 262 nM | 0
12 | CNC(=O)n1c(C)cc2cc(Nc3cccc4cc(C(=O)N5C[C@H](OC)C[C@H]5CO)sc34)ccc21 [Example 3f, 5-[2-((2S,4R)-2-Hydroxymethyl-4-methoxy-pyrrolidine-1-carbonyl)-benzo[b]thiophen-7-ylamino]-2-methyl-indole-1-carboxylic acid methylamide] | 1.85 nM | > 1000 nM | 44 | 24 | 2 | 2050 |  | 
13 | CO[C@@H]1C[C@@H](CO)N(C(=O)c2cc3cccc(Nc4ccc5c(c4)cc(C)n5C(=O)NC4CC4)c3s2)C1 [Example 3g, 5-[2-((2S,4R)-2-Hydroxymethyl-4-methoxy-pyrrolidine-1-carbonyl)-benzo[b]thiophen-7-ylamino]-2-methyl-indole-1-carboxylic acid cyclopropylamide] | 2.6 nM | > 1000 nM | 46 | 19 | 2 | 656 |  | 
14 | CNC(=O)n1c(C)cc2cc(Oc3ccnc4cc(C(=O)N5C[C@H](OC)C[C@H]5CO)sc34)ccc21 [Example 3o, 5-[2-(2-Hydroxymethyl-4-methoxy-pyrrolidine-1-carbonyl)-thieno[3,2-b]pyridin-7-yloxy]-2-methyl-indole-1-carboxylic acid methylamide] | 0.43 nM and 0.52 nM | 599 nM and 126 nM | 2880 | 2820 | 20 | 246 |  | 
15 | CNC(=O)n1c(C)cc2cc(Oc3ccnc4cc(C(=O)N5CCC[C@H]5COC)sc34)ccc21 [Example 4a, 5-(2-[(S)-2-(methoxymethyl)pyrrolidine-1-carbonyl]thieno[3,2-b]pyridin-7-yloxy)-2-methylindole-1-carboxylic acid methylamide] |  | 16.5 nM | 703 | 575 | 3 | 33 | 34 nM | 
16 | CNC(=O)n1c(C)cc2cc(Oc3ccnc4cc(C(=O)N5CCC[C@@H]5COC)sc34)ccc21 [Example 4e, 5-[2-(2R-Methoxymethyl-pyrrolidine-1-carbonyl)-thieno[3,2-b]pyridin-7-yloxy]-2-methyl-indole-1-carboxylic acid methylamide] |  | 16.7 nM | 5540 | 3790 | 23 | 14 |  | 
